{"source": "patent US20050159390A1", "about": "“Treatment and prevention of HIV and other viral infections” (priority 1998, published 2005)", "key": {"[1]": {"system": "HIV-1III B", "assay": "HIV-1 P24 output in activated human PBMCs, test solution mixed with virus overnight, day 9", "format": "cell-based", "conditions": "for inhibition at 5000 µg/mL (stock): Human immunodeficiency virus 1, PBMC, 216 h, read-out: Inhibition % of the control (P24 output)", "method": "Research Grade Purified d-Galactose (CAT# g404, lot 117H00431, FW 180.2, Sigma Chemical Co., St. Louis, Mo.) was dissolved in saline at a concentration of 5 mg/ml. The solution was allowed to stand at room temperature for 15 minutes and mixed by vortex until the galactose was completely dissolved. The galactose solution was divided into two equal aliquots. Stabilizing solution (0.1 ml) was added to one aliquot, then vortexed and incubated at room temperature for 30 minutes. After mixing again, the mixture was centrifuged at 1500 g for 30 minutes and the supernatant was filtered through a 0.2 μm filter and transferred to a sterile 15 ml tube. The solution was sterilized by gamma radiation (2.5 mega RADs) with 15 minutes exposure. The aliquot without the stabilizing solution was labeled “1A” and the aliquot containing the stabilized solution was labeled “1B”. […] […] Control solutions were water.\nOne ml of each of the dilutions of the test solution or control was mixed with an equal volume of HIV-1III B (˜50 TCID50/2×10^5 cells) to infect activated human PBMCs overnight at 37° C. (3×10^5 cells/dilution). HIV-1III B is a laboratory-adapted strain. The cells then were washed and placed in culture media containing the indicated dilution of the test solution in triplicate wells ([…], ½ medium changes with media containing the indicated dilutions of test solution were made at ˜3 day intervals). The conditioned media were tested for HIV-1 P24 output on day 9 using the DuPont P24 assay kit. The control was infected PBMCs in the absence of test solutions. Results are shown in Table 9 and are measured as the Inhibition % of the control."}, "[2]": {"system": "HIV-1 IIIB", "assay": "HIV-1 P24 output in activated human PBMCs, test solutions added post infection", "format": "cell-based", "conditions": "repeat with further dilutions; dilution 1:1000", "method": "In addition, a similar experiment was performed, except that test solutions were added post infection, at the time of plating into the triplicate wells."}, "[3]": {"system": "HIV-1RF", "assay": "CEM-SS cell-based assay, inhibition of HIV-induced cell killing (XTT)", "conditions": "CEM-SS cells", "method": "(§1) Cell Preparation: Prior to infection, CEM-SS cells were grown in complete tissue culture medium (RPMI 1640 medium with 10% heat-inactivated fetal bovine serum, 2 mM L-glutamine, 100 U/mL penicillin, 100 μg/mL streptomycin, 10 μg/mL gentamycin) and transferred to T-150 flasks. On the day preceding the assay, the cells were split 1:2 to assure the cells would be in an exponential growth phase at time of infection. On the day of assay, the cells were washed twice with tissue culture medium and resuspended in fresh tissue culture medium. […]\nVirus Preparation: Pre-tittered aliquots of HIV-1ROJO and HIV-1RF were removed from the freezer (−80° C.) and thawed to room temperature in a biological safety cabinet. The virus was resuspended and diluted into tissue culture medium such that the amount of virus added to each well in a volume of 50 μL will be the amount determined to give complete cell killing at 6 days post-infection.\nTetrazolium dye staining of screening plates: After 6 days of incubation (37° C. with 5% CO2), the test plates were analyzed by staining with the tetrazolium dye XTT (2,3-b (2-methoxy-4-nitro-5-sulfophenyl)-2H-tetrazolium-5-carboxanilide). XTT-tetrazolium is metabolized by mitochondrial enzymes of metabolically active cells to a soluble formazan product, allowing the rapid quantitative analysis of the inhibition of HIV-induced cell killing by anti-HIV compounds. […]"}, "[4]": {"system": "CEM-SS cells", "format": "cell-based", "method": "as §1\n(§2) Tetrazolium dye staining of screening plates: After 6 days of incubation (37° C. with 5% CO2), the test plates were analyzed by staining with the tetrazolium dye XTT (2,3-b (2-methoxy-4-nitro-5-sulfophenyl)-2H-tetrazolium-5-carboxanilide). XTT-tetrazolium is metabolized by mitochondrial enzymes of metabolically active cells to a soluble formazan product, allowing the rapid quantitative analysis of the inhibition of HIV-induced cell killing by anti-HIV compounds. […] Plates were sealed with adhesive plate sealers and inverted several times to mix the soluble formazan product and the plate was read spectrophotometrically at 450 nm with a Molecular Devices Vmax plate reader. Indices such as % CPE Reduction (cytopathic effects), % Cell Viability, IC25, IC50, IC95, TC25, TC50, and TC95 and other indices were calculated. […]"}, "[5]": {"system": "HIV-1IIIB", "assay": "CEM-SS cell-based assay, inhibition of HIV-induced cell killing (XTT)", "conditions": "CEM-SS cells"}, "[6]": {"system": "PBMCs", "format": "cell-based, human", "method": "For the standard PBMC assay, PHA-P stimulated cells from at least two normal donors were pooled, diluted in fresh medium to a final concentration of 1×10^6 cells/mL, and plated in the interior wells of a 96 well round bottom microplate at 50 μL/well (5×10^4 cells/well). Test drug dilutions were prepared at a 2× concentration in microfuge tubes and 100 μL of each concentration was placed in appropriate wells in a standard format. A predetermined dilution of virus stock was placed in each test well (50 μL, final MOI≅0.1). Wells with cells and virus alone were used for virus control. Separate plates were prepared identically without virus for drug cytotoxicity studies using an XTT assay system. […]\nas §2, with “reader.” for “reader. Indices such as % CPE Reduction (cytopathic effects), % Cell Viability, IC25, IC50, IC95, TC25, TC50, and TC95 and other indices were calculated.”"}, "[7]": {"system": "X4 strain LAI/IIIB", "assay": "RT activity in infected PBMCs treated with carbohydrates", "format": "cell-based, HIV", "conditions": "summary of Table 17", "method": "Reverse Transcriptase Activity Assay: A microtiter based reverse transcriptase (RT) reaction was utilized as described by Buckheit et al., (1991), AIDS Research and Human Retroviruses, 7: 295-302. Tritiated thymidine triphosphate (3H-TTP) was suspended in distilled H2O at 5 Ci/mL. Poly rA and oligo dT were prepared as a stock solution which was kept at −20° C. RT reaction buffer was prepared fresh on a daily basis and contained 125 μL 1M EGTA, 125 μL dH2O, 110 μL 10% SDS, 50 μL 1M Tris (pH 7.4), 50 μL 1M DTT, and 40 μL 1M MgCl2. These three solutions were mixed together in a ratio of 2 parts 3H-TTP, 1 part poly rA:oligo dT, and 1 part reaction buffer. Ten microliters of this reaction mixture were placed in a round bottom microtiter plate and 15 μL of virus containing supernatant were added and mixed. The plate was incubated at 37° C. in a water bath with a solid support to prevent submersion of the plate and incubated for 60 minutes. […] Opti-Fluor-O (Packard) was added to each sample and incorporated radioactivity was quantified utilizing a Wallac 1450 MicroBeta Plus liquid scintillation counter. […]\nNo carbohydrates were added to the control sample. RT activity was determined at 3, 6, 9, 13, 17, and 20 days post-infection (PI) with X4 strain LAI/IIIB."}, "[8]": {"conditions": "dilution 1:10 of 5 mg/ml solution"}, "[9]": {"conditions": "dilution 1:20 of 5 mg/ml solution"}, "[10]": {"conditions": "dilution 1:40 of 5 mg/ml solution"}, "[11]": {"conditions": "dilution 1:80 of 5 mg/ml solution"}, "[12]": {"conditions": "dilution 1:160 of 5 mg/ml solution"}}, "note": "Where two headings read alike, the source gives them in different places."}
{"smiles": "O=C[C@H](O)[C@@H](O)[C@@H](O)[C@H](O)CO", "note": "[1B, d-Galactose]", "values": [{"measurement": "Inhibition % of the control (P24 output)", "setting": "[1]; [8]", "result": 7, "unit": "%"}, {"measurement": "Inhibition % of the control (P24 output)", "setting": "[1]; [9]", "result": 5, "unit": "%"}, {"measurement": "Inhibition % of the control (P24 output)", "setting": "[1]; [10]", "result": 3, "unit": "%"}, {"measurement": "Inhibition % of the control (P24 output)", "setting": "[1]; [11]", "result": 4, "unit": "%"}, {"measurement": "Inhibition % of the control (P24 output)", "setting": "[1]; [12]", "result": 2, "unit": "%"}]}
{"smiles": "O=C(CO)N[C@H]1[C@H]([C@H](O)[C@H](O)CO)OC(O)(C(=O)O)C[C@@H]1O", "note": "(single isomer, unassigned) [2A, N-glycolylneuraminic acid]", "values": [{"measurement": "inhibition at 5000 µg/mL (stock)", "setting": "[1]; [9]", "result": 78, "unit": "%"}, {"measurement": "inhibition at 5000 µg/mL (stock)", "setting": "[1]; [10]", "result": 66, "unit": "%"}, {"measurement": "inhibition at 5000 µg/mL (stock)", "setting": "[1]; [11]", "result": 41, "unit": "%"}, {"measurement": "inhibition at 5000 µg/mL (stock)", "setting": "[1]; [12]", "result": 19, "unit": "%"}, {"measurement": "Inhibition % of Control (P24 output)", "setting": "[2]", "result": 7, "unit": "%"}]}
{"smiles": "OC[C@H]1O[C@H](O[C@H]2[C@@H](O)[C@@H](CO)OC(O)[C@@H]2O)[C@H](O)[C@@H](O)[C@H]1O", "note": "(single isomer, unassigned) [3B, galactose-α 1,3-galactose]", "values": [{"measurement": "Inhibition % of the control (P24 output)", "setting": "[1]; [8]", "result": 4.6, "unit": "%"}, {"measurement": "Inhibition % of the control (P24 output)", "setting": "[1]; [9]", "result": 3.6, "unit": "%"}, {"measurement": "Inhibition % of the control (P24 output)", "setting": "[1]; [10]", "result": 1.8, "unit": "%"}, {"measurement": "Inhibition % of the control (P24 output)", "setting": "[1]; [11]", "result": 1.1, "unit": "%"}, {"measurement": "Inhibition % of the control (P24 output)", "setting": "[1]; [12]", "result": 0.5, "unit": "%"}]}
{"smiles": "O=C[C@H](O)[C@@H](O)[C@@H](O)[C@H](O)CO", "note": "[1A, d-Galactose]", "values": [{"measurement": "inhibition at 5000 µg/mL (stock)", "setting": "[1]; [8]", "result": 4, "unit": "%"}, {"measurement": "inhibition at 5000 µg/mL (stock)", "setting": "[1]; [9]", "result": 5, "unit": "%"}, {"measurement": "inhibition at 5000 µg/mL (stock)", "setting": "[1]; [10]", "result": 4, "unit": "%"}, {"measurement": "inhibition at 5000 µg/mL (stock)", "setting": "[1]; [11]", "result": 2, "unit": "%"}, {"measurement": "inhibition at 5000 µg/mL (stock)", "setting": "[1]; [12]", "result": 2, "unit": "%"}]}
{"smiles": "Cc1cn([C@H]2C[C@H](N=[N+]=[N-])[C@@H](CO)O2)c(=O)[nH]c1=O", "note": "[AZT, reference compound]", "values": [{"measurement": "IC50", "setting": "[3]", "result": "0.005 to 0.007", "unit": "µM"}, {"measurement": "CC50", "setting": "[4]", "result": "> 1", "unit": "µM"}, {"measurement": "IC50", "setting": "[5]", "result": "0.011 to 0.017", "unit": "µM"}, {"measurement": "CC50", "setting": "[6]", "result": "> 4", "unit": "µM"}]}
{"smiles": "CC(=O)N[C@H]1[C@H]([C@H](O)[C@H](O)CO)OC(O)(C(=O)O)C[C@@H]1O", "note": "(stereo partly shown) [N-acetylneuraminic acid, reference compound]", "values": [{"measurement": "RT activity in treated cells (in words)", "setting": "[7]", "result": "decreased RT activity was observed only with high concentrations"}]}
{"smiles": "OC[C@H]1O[C@H](O[C@H]2[C@@H](O)[C@@H](CO)OC(O)[C@@H]2O)[C@H](O)[C@@H](O)[C@H]1O", "note": "(single isomer, unassigned) [3A, galactose-α 1,3-galactose]", "values": [{"measurement": "Inhibition % of the control (P24 output)", "setting": "[1]; [9]", "result": 3.6, "unit": "%"}, {"measurement": "Inhibition % of the control (P24 output)", "setting": "[1]; [10]", "result": 2.2, "unit": "%"}, {"measurement": "Inhibition % of the control (P24 output)", "setting": "[1]; [11]", "result": 1.4, "unit": "%"}, {"measurement": "Inhibition % of the control (P24 output)", "setting": "[1]; [12]", "result": 0.4, "unit": "%"}]}
{"smiles": "O=C(CO)N[C@H]1[C@H]([C@H](O)[C@H](O)CO)OC(O)(C(=O)O)C[C@@H]1O", "note": "(single isomer, unassigned) [2B, N-glycolylneuraminic acid]", "values": [{"measurement": "Inhibition % of the control (P24 output)", "setting": "[1]; [10]", "result": 61, "unit": "%"}, {"measurement": "Inhibition % of Control (P24 output)", "setting": "[2]", "result": 1, "unit": "%"}]}
